This is an account of results in ChEMBL document CHEMBL4699657, “Fragment-to-Lead Medicinal Chemistry Publications in 2019” (J Med Chem, 2020).

pIC50: −log10 of the molar value.

The assay can be described thus: Inhibition of Influenza A/California/04/09 H1N1 PA endonuclease (1 to 204 residues) expressed in Escherichia coli BL21 (RIL) cells using (6-FAM)TGGCAATATCAGCTCCACA(MGBNFQ) DNA probe as substrate measured after 5 to 90 mins by fluorescence assay. Details: species or system Influenza A virus (A/California/04/2009(H1N1)).

On to `O=c1[nH]cc(Br)cc1O`, for which the pIC50 is 4.80.
The result for `O=C(O)c1ccc(-c2cc(O)c(=O)[nH]c2-c2ccc(F)cc2)cc1` reads 7.96.

A word on the pIC50: it is the negative decadic logarithm of the IC50, by convention in mol/L.
